Assay results as given in patent US6646129B2, “Cyanoguanidines as cell proliferation inhibitors” (Leo Pharmaceutical Products Ltd. A/S, priority 1997, dated 2003).

Legend:
Assay type in all cases: cell-based
[1] = system: human small cell lung carcinoma (NYH) cell line; assay: Inhibition of tumour cell proliferation in vitro, [3H]thymidine incorporation, NYH; conditions: NYH cells, 24 hours with compound, DNA synthesis by [3H]thymidine incorporation
Protocol: (§1) The inhibition of tumour cell proliferation was studied using different types of human cancer cell lines. The cell lines under investigation were small cell lung carcinoma (NYH), non small cell lung carcinoma (NCl-H460), and breast cancer (MCF-7) using the following general procedure:
(§2) The cells were cultured in vitro for 24 hours in the presence of the compound under investigation. DNA synthesis was measured by incorporation of [^3H]thymidine, and the median inhibitory concentrations (IC50) of the compounds were calculated.

[2] = system: human non small cell lung cancer (NCI-H460) cell line; assay: Inhibition of tumour cell proliferation in vitro, [3H]thymidine incorporation, NCI-H460; conditions: NCI-H460 cells, 24 hours with compound, DNA synthesis by [3H]thymidine incorporation
Protocol: as §1, §2

[3] = system: human breast cancer (MCF-7) cell line; assay: Inhibition of tumour cell proliferation in vitro, [3H]thymidine incorporation, MCF-7; conditions: MCF-7 cells, 24 hours with compound, DNA synthesis by [3H]thymidine incorporation
Protocol: as §1, §2

Structure (SMILES)	IC50 [1] [nM]	IC50 [2] [nM]	IC50 [3] [nM]	IC50 ([1]; Homo sapiens) [nM]	IC50 ([2]; Homo sapiens) [nM]	IC50 ([3]; Homo sapiens, MCF7) [nM]
N#CNC(=NCCCCCCCCCCCOC1CCCCO1)Nc1ccncc1 (stereo not drawn) [Example No. 7, N-Cyano-N′-4-pyridyl-N″-(11-tetrahydropyranyloxyundecanyl)guanidine]	0.51	4.6	4.2	–	–	–
CCP(=O)(CC)OCCCCCCCCCCCNC(=Nc1ccncc1)NC#N [Example No. 8, N-Cyano-N′-(11-diethylphosphinoyloxyundecanyl)-N″-4-pyridylguanidine]	–	–	–	0.48	6	1.7
CC(C)(C)OC(=O)NCCCCCCCCCCCCNC(=Nc1ccncc1)NC#N [Example No. 1, N-(1 2-t-Butoxycarbonylaminododecyl)-N′-cyano-N″-4-pyridylguanidine]	–	–	–	0.62	45	3.6
